Data as given in patent US12090149B2, “SMAD3 inhibitors” (Moexa Pharmaceuticals Limited, priority 2018, dated 2024).
Where “and” joins values, the source holds several entries; their conditions need not be identical. Equal entries are not always repeated. Entries after “also recorded” stand apart in the source; their conditions may differ.

How the values were obtained:
[1] = system: B16-F10 syngeneic model; test: Subcutaneous B16-F10 syngeneic model, tumor growth; assay type: in vivo, C57BL/6 mice
Description: In order to evaluate the in vivo efficacy of SIS3 and novel compounds of the present invention, a study has been conducted in treatment of the subcutaneous B16-F10 syngeneic models.
(§1) • Animal species and strain: C57BL/6 mice • History of treatment: Naive • Sex, age and weight: Female, 6-8 weeks • Breeder/supplier: Shanghai SLAC Laboratory Animal Co. Ltd • Adaptation: At least 7 days • Room: SPF Room • Room temperature: 20-26° C. • Room relative humidity: 40-70% • Light cycle: Fluorescent light for 12-hour light (08:00-20:00) and 12-hour dark • Animal hosting: 2-5 mice/cage each group • Food: Free access to food • Water: Free access to water (municipal tap water filtered by reverse osmosis or high-pressure sterilizer)
B16-F10 cell was maintained at 37° C. under 5% CO2 in DMEM medium supplemented with 10% FBS and were subsequently cultured within 10 passages before inoculated into the mice.
(§2) B16-F10 cells (3×10^5 in 100 μL of serum-free medium) were inoculated to each of C57BL/6 mice via s.c. under anesthesia by 3-4% isoflurane. Each group contains 15 mice.
(§3) When average tumor volume reached 35-60 mm^3, 15 mice were randomized into group 6. The day of inoculation was denoted as day 0.
Tumor dimensions were measured on Day 4, 5, 6, 8, 11, 13, 15 and 18, after inoculation in 2 dimensions with calipers.
When required, tumor volume was measured daily. The tumor volume (V) was calculated as follows: V=(length×width^2)/2.
The individual relative tumor volume (RTV) was calculated as follows: RTV=Vt/V0, where Vt was the volume on each day, and V0 was the volume at the beginning of the treatment.
Tumor growth inhibition (TGI), TGI=(1−(Ti−T0)/(Ci−C0))×100%; Ti and Ci as the mean tumor volumes of the treatment and control groups on the measurement day; T0 and C0 as the mean tumor volumes of the treatment and control groups on day 0
(§4) Results were expressed as mean±S.E.M. Comparisons between two groups were made by Dunnett's multi-comparison test, p<0.05 were considered as significant.

[2] = Body weight of tumor bearing mice in the B16-F10 syngeneic model; assay type: in vivo, C57BL/6 mice
Description: as §1, §2, §3
Body weight was measured on Day 4, 5, 6, 8, 11, 13, 15 and 18 after inoculation. When required, body weight was measured daily.
as §4

[3] = 100 mg/kg q.d. * 3W i.p. (group 6), Day 13
[4] = 100 mg/kg q.d. * 3W i.p. (group 6), Day 15
[5] = 100 mg/kg q.d. * 3W i.p. (group 6), Day 18
[6] = 100 mg/kg q.d. * 3W i.p. (group 6, randomized at tumor volume 35-60 mm^3), Day 8
[7] = single agent, i.p. QD*3 weeks, SIS3 10 and 30 mg/kg, MO-00005 10, 30 and 100 mg/kg, vs vehicle

COc1cc2c(cc1OC)CN(C(=O)/C=C/c1c(-c3ccccc3)nc3ccccn13)CC2 [Compound 8, (E)-1-(6,7-dimethoxy-3,4-dihydroisoquinolin-2(1H)-yl)-3-(2-phenylimidazo[1,2-a]pyridin-3-yl)prop-2-en-1-one]
Relative tumor volume Mean ([1]; 30 mg/kg q.d. * 3W i.p., Day 18, RTV=Vt/V0): 63.87
Relative tumor volume Mean ([1]; 100 mg/kg q.d. * 3W i.p. (group 6), Day 8, RTV=Vt/V0): 1.00
Relative tumor volume Mean ([1]; 100 mg/kg q.d. * 3W i.p. (group 6), Day 11, RTV=Vt/V0): 3.70
Tumor growth inhibition (%) TGI ([1]; 100 mg/kg q.d. * 3W i.p. (group 6), Day 11, calculated based on tumor volume of Day 8): 29%
Tumor Sizes (mm3) Mean ([1]; 100 mg/kg q.d. * 3W i.p. (group 6), Day 11, listed as MO-00005): 155.10 mm3 and 155.1 mm3
Tumor Sizes (mm3) Mean [1, 3]: 335.85 mm3
Relative tumor volume Mean ([1]; 100 mg/kg q.d. * 3W i.p. (group 6), Day 13, RTV=Vt/V0): 7.98
Tumor growth inhibition (%) TGI ([1]; 100 mg/kg q.d. * 3W i.p. (group 6), Day 13, calculated based on tumor volume of Day 8): 46%
Tumor Sizes (mm3) Mean [1, 4]: 724.03 mm3
Relative tumor volume Mean ([1]; 100 mg/kg q.d. * 3W i.p. (group 6), Day 15, RTV=Vt/V0): 17.31
Tumor growth inhibition (%) TGI ([1]; 100 mg/kg q.d. * 3W i.p. (group 6), Day 15, calculated based on tumor volume of Day 8): 32%
Tumor Sizes (mm3) Mean [1, 5]: 2107.22 mm3
Relative tumor volume Mean ([1]; 100 mg/kg q.d. * 3W i.p. (group 6), Day 18, RTV=Vt/V0): 50.47
Tumor growth inhibition (%) TGI ([1]; 100 mg/kg q.d. * 3W i.p. (group 6), Day 18, calculated based on tumor volume of Day 8): 25%
Tumor Sizes (mm3) Mean [1, 6]: 42.19 mm3
reduction of tumor weight compared to the control group ([1]; high dose group, after 18 days of the experiment): ~50%
anti-tumor activity against the B16-F10 syngeneic model (in words) [1, 7]: anti-tumor response; also recorded: significant anti-tumor activity; also recorded: inhibits the growth of cancer
efficacy on tumor weight (in words) [1, 7]: significant efficacy on tumor weight
Body weight (g) Mean ([2]; 10 mg/kg q.d. * 3W i.p., Day 1): 16.73 g
Body weight (g) Mean ([2]; 10 mg/kg q.d. * 3W i.p., Day 4): 16.41 g
Body weight (g) Mean ([2]; 10 mg/kg q.d. * 3W i.p., Day 5): 16.26 g
Body weight (g) Mean ([2]; 10 mg/kg q.d. * 3W i.p., Day 6): 16.21 g
Body weight (g) Mean ([2]; 10 mg/kg q.d. * 3W i.p., Day 8): 16.67 g
Body weight (g) Mean ([2]; 10 mg/kg q.d. * 3W i.p., Day 11): 17.33 g
Body weight (g) Mean ([2]; 10 mg/kg q.d. * 3W i.p., Day 13): 17.51 g
Body weight (g) Mean ([2]; 10 mg/kg q.d. * 3W i.p., Day 15): 18.85 g
Body weight (g) Mean ([2]; 10 mg/kg q.d. * 3W i.p., Day 18): 21.26 g
Body weight (g) Mean ([2]; 30 mg/kg q.d. * 3W i.p., Day 1): 16.70 g
Body weight (g) Mean ([2]; 30 mg/kg q.d. * 3W i.p., Day 4): 16.54 g
Body weight (g) Mean ([2]; 30 mg/kg q.d. * 3W i.p., Day 5): 16.32 g
Body weight (g) Mean ([2]; 30 mg/kg q.d. * 3W i.p., Day 6): 16.18 g
Body weight (g) Mean ([2]; 30 mg/kg q.d. * 3W i.p., Day 8): 16.60 g
Body weight (g) Mean ([2]; 30 mg/kg q.d. * 3W i.p., Day 11): 17.36 g
Body weight (g) Mean ([2]; 30 mg/kg q.d. * 3W i.p., Day 13): 17.78 g
Body weight (g) Mean ([2]; 30 mg/kg q.d. * 3W i.p., Day 15): 18.73 g
Body weight (g) Mean ([2]; 30 mg/kg q.d. * 3W i.p., Day 18): 20.93 g
Body weight (g) Mean ([2]; 100 mg/kg q.d. * 3W i.p. (group 6), Day 11): 17.20 g
Body weight (g) Mean [2, 3]: 17.95 g
Body weight (g) Mean [2, 4]: 18.78 g
Body weight (g) Mean [2, 5]: 21.82 g
Body weight (g) Mean [2, 6]: 17.36 g
